The values that follow come from PMC11114115 (Molecular Pharmacology, 2024).

In general, EC50 refers to the concentration at which the effect is half-maximal. Read a low EC50 as an effect from little substance.

The experiment concerns the target human M3R (M3 muscarinic acetylcholine receptor) (Homo sapiens, UniProt P20309). Kind of experiment: cell-based.

human M3R (M3 muscarinic acetylcholine receptor), sequence (P20309 whole entry): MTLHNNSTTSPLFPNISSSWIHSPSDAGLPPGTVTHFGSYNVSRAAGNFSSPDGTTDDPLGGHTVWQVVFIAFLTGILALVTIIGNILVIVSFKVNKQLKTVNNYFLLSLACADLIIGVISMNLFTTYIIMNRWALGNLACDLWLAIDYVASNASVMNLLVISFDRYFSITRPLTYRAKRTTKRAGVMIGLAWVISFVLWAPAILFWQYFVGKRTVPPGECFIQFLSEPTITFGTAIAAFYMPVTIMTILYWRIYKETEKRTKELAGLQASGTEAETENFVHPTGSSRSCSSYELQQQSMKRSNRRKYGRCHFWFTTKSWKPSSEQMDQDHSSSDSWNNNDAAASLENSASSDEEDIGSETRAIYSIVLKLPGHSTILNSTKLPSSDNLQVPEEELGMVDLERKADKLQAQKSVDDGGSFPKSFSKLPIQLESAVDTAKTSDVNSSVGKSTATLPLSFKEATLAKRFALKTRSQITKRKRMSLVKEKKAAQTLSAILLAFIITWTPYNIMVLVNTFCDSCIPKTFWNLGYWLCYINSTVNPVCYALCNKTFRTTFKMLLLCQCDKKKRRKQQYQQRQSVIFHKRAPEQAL

The molecule `C[N+](C)(C)CC#CCN1CCCC1=O` [Oxotremorine-M] showed an EC50 of 12.6 nM.
